Measured values taken from publication PMC11187217, “Anti-adhesive, anti-biofilm and fungicidal action of newly synthesized gemini quaternary ammonium salts” (Scientific Reports, 2024).
Read-outs that look alike come from different tables or passages of the source.

Tests used:
[1] = tested on: C. albicans ATCC 10231 biofilm; test: Biofilm eradication (crystal violet); format: cell-based, Candida albicans; details: 24 h biofilm, 4 h exposure, concentration not given (tested 20–1280 µM)
Method: The culture of C. albicans ATCC 10231 was incubated with shaking for 18 h at 37 °C, centrifuged (1000 rcf, 5 min), and the pellet was suspended in PBS (pH 7.4) until OD = 0.8. 100 µl of the obtained culture was spotted into the wells of a 96-well plate and it was incubated at 37 °C for 24 h. After incubation, the culture was removed from the wells and rinsed with sterile distilled water. Then, 100 µl of the tested gemini QAS at concentrations of 20–1280 µM were added and incubated for 4 h at 37 °C. After this time, the compounds were removed, and the plates were rinsed with sterile distilled water and placed in an oven (60 °C, 20 min) to strengthen the formed biofilm. Then 100 µl of crystal violet (0.1%) was added and stained for 5 min. The plates were rinsed with sterile distilled water until there were no traces of purple in the rinse water, and 150 µl of washing mixture (1% SDS, 50 mmol HCl, 100% isopropanol) was added. Absorbance was measured at λ = 590 nm (BioTek 800 TS Absorbance Reader). The negative control was the medium, while the positive control was the culture wells to which the tested gemini QAS had not been added. The experiment was carried out based on a modification of the method of Obłąk et al.. The tested samples were performed in 3 repetitions.

[2] = tested on: Salmonella Typhimurium TA100; details: for Number of colonies: ± SD
Method: The mutagenic potential of the tested gemini QAS was determined using the Ames test[83] using Salmonella Typhimurium TA98 and Salmonella Typhimurium TA100 with defects in histidine biosynthesis. The culture of S. Typhimurium TA98 and S. Typhimurium TA100 was incubated with shaking at 37 °C for 18 h, centrifuged (3000 rpm, 5 min) and OD = 1.5 was determined, at a wavelength of λ = 590 nm. The agar was dissolved and cooled to 42 °C. […] The media were incubated for 48 h at 37 °C. The positive control for the S. Typhimurium TA98 strain was acriflavin (100 μg/ml), and for the S. Typhimurium TA100 strain, sodium azide (15 μg/ml). The negative control was the culture without tested compound and with NaCl (0,9%). After incubation, the colonies were counted and the mutagenicity index (MR) was determined—the ratio of the number of revertants resulting from the mutagenic effect of the tested compound to the number of spontaneous revertants. Experiment was performed in three repetitions.

[3] = Critical micelle concentration (CMC), conductometric method; format: physicochemical; details: double distilled water, 25 °C
Text: Alkanoyl chlorides (dodecanoyl, tetradecanoyl and hexadecanoyl) were obtained from Sigma-Aldrich. Anhydrous lactic acid (99%, crystalline) was purchased from Alfal. All solvents were obtained from Avantor Performance Materials or Stanlab and used as received. Methanol (solvent) for counterions exchange reactions was analytical grade (Avantor Performance Materials) and was additionally dried over CaH2 prior synthesis. Deuterated solvents were from Sigma-Aldrich. CMC values of surfactants were measured conductometrically in double distilled water at 25 °C.
Elemental analysis was conducted utilizing Vario EL cube (Elementar, Germany) calibrated on acetanilide. Mass spectra were gain by electrospray ionization mass spectroscopy (ESI–MS) (micrOTOF-Q instrument; Bruker Daltonics, Germany). The ESI–MS aparatus was operated in the positive ion mode (calibrated with the Tunemix™ mixture; Bruker Daltonics; Germany), followed by spectra analysis by the DataAnalysis 3.4 software (Bruker Daltonics, Germany)—resolution of at least 5 ppm. Proton NMR and ^13C NMR measurements were performed on a Bruker AMX-500 spectrometer, utilizing CDCl3 or DMSO-d6 as a solvent. Proton and ^13C chemical shifts (given in ppm) were calibrated to TMS (δ = 0 ppm) as an internal reference. Krafft points were measured according to procedures described in our previous studies Lamch et al.,[82]. Values of CMC for all surfactants were measured utilizing the conductometric method for the compounds’ solutions in milliQ water in the same manner as described in Kula et al.. For all spectra: ^1H NMR, ^13C NMR and ESI–MS as well as appropriate comments see Electronic Supplementary Material.

C. albicans ATCC 10231 = test: Adhesion of C. albicans to stainless steel surface; format: cell-based, Candida albicans; details: concentration not stated (tested 80–640 µM)
Method: The effect of gemini QAS on the adhesion of C. albicans ATCC 10231 was determined using a modification of the method of Obłąk et al.. […] After incubation, the culture was centrifuged (1000 rcf, 5 min), and the resulting pellet was suspended in PBS (pH 7.4) until OD = 0.8 (λ = 590 nm). • In the case of testing the polystyrene surface, 100 µl of tested gemini QAS at concentrations of 20–1280 µM was added to the wells of a 96-well titration plate, incubated for 2 h at 37 °C, rinsed with sterile distilled water, and then spotted with 100 µl of the obtained culture and incubated at 37 °C for 4 h. After this time, the culture was removed, the plates were rinsed with sterile distilled water and placed in an oven (60 °C, 20 min). Then, crystal violet (0.1%) was added to the wells of the titration plate, stained for 5 min and rinsed with sterile distilled water until all traces of violet were removed from the rinsed water. Then the washing mixture (1% SDS, 50 mmol HCl, 100% isopropanol) was added. The absorbance of the samples was read using a spectrophotometer (BioTek 800 TS Absorbance Reader) at λ = 590 nm. The positive control was the culture wells to which the tested gemini QAS were not added, and the negative control was the medium. The experiment was performed in 3 repetitions. • When the tested surface was stainless steel (round washers Ø 0.4 cm), silicone (0.5 cm long fragments of Foley catheters) or glass (1 cm^2 coverslips), the tested materials were incubated for 2 h at 37 °C with shaking (100 rpm) in the presence of the tested gemini QAS at concentrations of 80–640 µM. Then, the materials were rinsed with sterile distilled water, transferred to tubes with culture and incubated for 4 h at 37 °C with shaking (100 rpm). After incubation, the materials were rinsed with sterile distilled water. […] Next, the washing mixture (1% SDS, 50 mmol HCl, 100% isopropanol) was added and the absorbance of the samples was read using a spectrophotometer (BioTek 800 TS Absorbance Reader) at λ = 590 nm. […] After this time, the colonies growing on the plates were counted. […]

## CCCCCCCCCCCC(=O)N(CCCN(CCC[N+](C)(C)C)C(=O)CCCCCCCCCCC)CCC[N+](C)(C)C [2xC12MeCO3G3, dimethyl{{3-[N-(3-{N-[3-(dimethylammonium)propyl]dodecylamido}propyl}dodecylamido}propyl}}ammonium dimethylcarbonate]
[1]
  Destruction (eradication) of formed C. albicans biofilm: approximately 40%
[2]; TA100, ¼ MIC
  Mutagenicity ratio (MR): 0.87
  Number of colonies: 243.0 ± 8.49
[2]; TA100, ½ MIC
  Mutagenicity ratio (MR): 1.57
  Number of colonies: 438.0 ± 2.83
[3]
  CMC: 1.8*10^–4 mol/dm^3
C. albicans ATCC 10231
  Inhibition of adhesion of C. albicans to stainless steel: approximately 60%

## CCCCCCCCCCCCCCCC(=O)N(CCCN(CCC[N+](C)(C)C)C(=O)CCCCCCCCCCCCCCC)CCC[N+](C)(C)C [2xC16BrG3]
[1]
  Destruction (eradication) of formed C. albicans biofilm: approximately 80%
[2]; TA100, ¼ MIC
  Number of colonies: 380.0 ± 1.37
[2]; TA100, ½ MIC
  Mutagenicity ratio (MR): 1.50
[3]
  CMC: 4.6*10^–7 mol/dm^3
C. albicans ATCC 10231
  Inhibition of adhesion of C. albicans to stainless steel: approximately 60%

## CCCCCCCCCCCCCCCC(=O)N(CCCN(CCC[N+](C)(C)C)C(=O)CCCCCCCCCCCCCCC)CCC[N+](C)(C)C [2xC16MeCO3G3, dimethyl{{3-[N-(3-{N-[3-(dimethylammonium)propyl]hexadecylamido}propyl}hexadecylamido}propyl}}ammonium dimethylcarbonate]
[1]
  Destruction (eradication) of formed C. albicans biofilm: approximately 80%
[2]; TA100, ¼ MIC
  Mutagenicity ratio (MR): 1.43
  Number of colonies: 398.0 ± 2.83
[2]; TA100, ½ MIC
  Mutagenicity ratio (MR): 1.76
  Number of colonies: 490.5 ± 3.54
[3]
  CMC: 1.6*10^–6 mol/dm^3
C. albicans ATCC 10231
  Inhibition of adhesion of C. albicans to stainless steel: approximately 50%

## CCCCCCCCCCCCCC(=O)N(CCCN(CCC[N+](C)(C)C)C(=O)CCCCCCCCCCCCC)CCC[N+](C)(C)C [2xC14BrG3]
[1]
  Destruction (eradication) of formed C. albicans biofilm: approximately 80%
[2]; TA100, ¼ MIC
  Mutagenicity ratio (MR): 0.99
  Number of colonies: 199.0 ± 1.41
[2]; TA100, ½ MIC
  Mutagenicity ratio (MR): 0.98
  Number of colonies: 197.0 ± 0.71
[3]
  CMC: 5.4*10^–6 mol/dm^3

## CCCCCCCCCCCCCCCC(=O)N(CCCN(CCC[N+](C)(C)C)C(=O)CCCCCCCCCCCCCCC)CCC[N+](C)(C)C [2xC16LaG3]
[1]
  Destruction (eradication) of formed C. albicans biofilm: approximately 20%
[2]; TA100, ¼ MIC
  Mutagenicity ratio (MR): 0.99
  Number of colonies: 197.7 ± 1.53
[2]; TA100, ½ MIC
  Mutagenicity ratio (MR): 1.06
  Number of colonies: 213.0 ± 4.24
[3]
  CMC: 3.7*10^–7 mol/dm^3

## CCCCCCCCCCCC(=O)N(CCCN(CCC[N+](C)(C)C)C(=O)CCCCCCCCCCC)CCC[N+](C)(C)C [2xC12BrG3]
[1]
  Destruction (eradication) of formed C. albicans biofilm: approximately 80%
[2]; TA100, ¼ MIC
  Mutagenicity ratio (MR): 0.95
  Number of colonies: 265.0 ± 7.07
[2]; TA100, ½ MIC
  Mutagenicity ratio (MR): 1.23
  Number of colonies: 308.3 ± 6.87
[3]
  CMC: 6.4*10^–5 mol/dm^3
